Data from publication PMC6769468, “Endogenous Neuropeptide Nocistatin Is a Direct Agonist of Acid-Sensing Ion Channels (ASIC1, ASIC2 and ASIC3)” (Biomolecules, 2019).
Ends that are not written are not given here.

Target: T1, rat ASIC3 (Rattus norvegicus, UniProt O35240)
T1 construct: expressed in transfected cells; host or cells: Xenopus laevis oocytes (injected)
T1 sequence (O35240 1-533): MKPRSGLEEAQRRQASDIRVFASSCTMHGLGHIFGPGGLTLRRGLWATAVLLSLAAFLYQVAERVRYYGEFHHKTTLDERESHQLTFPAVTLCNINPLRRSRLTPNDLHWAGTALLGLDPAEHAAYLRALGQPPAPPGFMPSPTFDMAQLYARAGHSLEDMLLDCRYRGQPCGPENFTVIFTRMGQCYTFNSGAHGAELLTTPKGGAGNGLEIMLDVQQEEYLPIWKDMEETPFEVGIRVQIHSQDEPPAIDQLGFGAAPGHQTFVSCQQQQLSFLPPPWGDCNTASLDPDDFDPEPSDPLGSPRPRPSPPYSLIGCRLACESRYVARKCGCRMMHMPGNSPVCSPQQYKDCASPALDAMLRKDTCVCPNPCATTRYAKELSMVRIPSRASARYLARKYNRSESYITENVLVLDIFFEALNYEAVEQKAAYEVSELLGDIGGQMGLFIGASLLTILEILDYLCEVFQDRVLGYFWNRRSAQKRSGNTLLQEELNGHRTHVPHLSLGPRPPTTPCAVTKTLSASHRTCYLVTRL
Assay: Whole-cell current activation, rat ASIC3 in X. laevis oocytes
Format: cell-based
Procedure: Oocytes expressed rASIC1a, rASIC1b, rASIC2a, and rASIC3 homomeric channels were prepared as described. Injected oocytes were kept for two–three days at 19 °C and then for up to seven days at 15 °C in ND-96 medium supplemented with gentamycin (50 μg·mL^−1) and containing (in mM): 96 NaCl, 2 KCl, 1.8 CaCl2, 1 MgCl2, and 10 HEPES titrated to pH 7.4 with NaOH. Electrophysiological recordings were performed using the GeneClamp500 amplifier (Axon Instruments, Inverurie, UK) at a holding potential of -50 mV. The data were filtered at 20 Hz and digitized at 100 Hz using the L780 AD converter (L-Card, Moscow, Russia). Microelectrodes were filled with 3 M KCl. The external bath solution was ND-96 with pH adjusted to 7.4/7.8 (10 mM HEPES) /8.5 (10 mM Tris). Nocistatin containing solutions were freshly prepared and buffered each experimental day in ND-96 bath solution (pH 7.4/7.8/8.5). Proton-activated currents through ASIC channels were elicited by application of ND-96, in which 10 mM of HEPES was substituted with 10 mM MES at pH 5.5/ 10 mM acetic acid at pH 4.5. […]
All data are presented as mean ± SEM. The significance of normalized data differences was determined with a non-parametric Kruskal-Wallis ANOVA test with the significance level * p < 0.05 and ** p < 0.01; ns, non-significant.

Question: With “MPRVRSVVQARDAEPEADAEPVADEADEVEQKQLQ [rNS]” as the sequence, how does the “tmax greater than for protons by” value (1 mM rNS vs pH drop 7.4–5.5, slower activation) read?
Answer: Its value is ~ 49%.

Question: And the “τdes (desensitization time constant)” value (1 mM rNS, conditioning pH 7.4, mean ± S.E. from 4–7 measurements)?
Answer: Its value is 0.4 ± 0.1 s.
